Where two headings read alike, the source gives them in different places.
Columns and labels:
Alternaria solani = assay: Example M: in vivo test on Alternaria solani (leaf blotch disease/tomato/protective); settings: 168 h, tomato, protective, 500 ppm active substance, assessed 7 days after inoculation, read-out: % Wirkungsgrad (activity level)
Experimental: Solvent: 49 parts by weight N,N-dimethylformamide Emulsifier: 1 part by weight alkylaryl polyglycol ethers For the preparation of a suitable active substance preparation, 1 part by weight of active substance is mixed with the stated quantities of solvent and emulsifier and the concentrate is diluted to the desired concentration with water. For the testing for protective activity, young tomato plants are sprayed with the active substance preparation at the stated application dosage. […] 7 days after the inoculation, the assessment takes place.

Fusarium graminearum = assay: microbe, parasite or virus in culture; assay type: cell-based
[1] = LogPA (logP of the stated pure compound or, in a mixture, of the main isomer, 1-substituted 3-aryl-1H-pyrazole)
[2] = 72 h, read-out: % Inhibition des Pilzwachstums bei 50 μM
[3] = 168 h, read-out: % Inhibition der DON/AcDON produktion bei 50 μM

| SMILES | pest or weed control at 500 ppm (Alternaria solani) | chromatographic logP (physchem; LogPA) | chromatographic logP (physchem; pH 2.7, logP (pH 2.7)) | other results |
| --- | --- | --- | --- | --- |
| CC(C)=CCn1ncc(-c2ccncc2)c1-c1ccc(F)cc1 [Compound 25] | 90% | – | – | chromatographic logP (physchem; [1]): 2.68 |
| Fc1ccc(-c2nn(Cc3ccccc3-c3ccccc3)cc2-c2ccncc2)cc1 [Compound 135] | 78% | – | – | chromatographic logP (physchem; [1]): 2.34 |
| Cc1cc(C(=O)Cn2cc(-c3ccncc3)c(-c3ccc(F)cc3)n2)nn1C [Compound 144] | 94% | – | – | chromatographic logP (physchem; [1]): 1.31 |
| CC(C)Cn1cc(-c2ccncc2)c(-c2ccc(F)c(C#N)c2)n1 [Compound 154] | – | – | – | inhibition at 50 µM (Fusarium graminearum; [2]): 0%; inhibition at 50 µM (Fusarium graminearum; [3]): 93%; chromatographic logP (physchem; [1]): 1.65 |
| CCOC(=O)Cn1cc(-c2ccncc2)c(-c2ccc(F)cc2)n1 [Compound 170] | 78% | 1.31 | – | – |
| C#CCNc1nccc(-c2c[nH]nc2-c2ccc(F)cc2)n1 [Compound 173] | 94% | 1.44 | – | – |
| CCC(=O)Nc1cc(-c2cn(CC(C)C)nc2-c2ccc(F)c(C#N)c2)ccn1 [Compound 230] | – | 2.67 | – | inhibition at 50 µM (Fusarium graminearum; [2]): 0%; inhibition at 50 µM (Fusarium graminearum; [3]): 97% |
| CCNC(=O)Nc1cc(-c2cn(CC(F)F)nc2-c2ccc(F)cc2)ccn1 [Compound 231] | 95% | 1.91 | – | – |
| O=C(Nc1cc(-c2cn(CC(F)F)nc2-c2ccc(F)cc2)ccn1)c1ccsc1 [Compound 235] | 94% | 2.69 | – | – |
| COCC(=O)Nc1cc(-c2cn(C(C)c3ccccc3F)nc2-c2ccc(F)cc2)ccn1 (stereo not drawn) [Compound 244] | 94% | 3.5 | – | – |
| COCC(=O)Nc1cc(-c2cn(CC(C)C)nc2-c2ccc(F)c(C#N)c2)ccn1 [Compound 246] | – | 2.98 | – | inhibition at 50 µM (Fusarium graminearum; [2]): 88%; inhibition at 50 µM (Fusarium graminearum; [3]): 99% |
| CCC(=O)Nc1cc(-c2cn(C(C)c3ccccc3F)nc2-c2ccc(F)cc2)ccn1 (stereo not drawn) [Compound 248] | 94% | 3.03 | – | – |
| CC(C)Cn1cc(-c2ccnc(NC(=O)CC3CC3)c2)c(-c2ccc(F)c(C#N)c2)n1 [Compound 252] | – | 3.14 | – | inhibition at 50 µM (Fusarium graminearum; [2]): 0%; inhibition at 50 µM (Fusarium graminearum; [3]): 99% |
| CC(C)Cn1cc(-c2ccnc(NC(=O)C(C)C)c2)c(-c2ccc(F)c(C#N)c2)n1 [Compound 255] | – | 3.03 | – | inhibition at 50 µM (Fusarium graminearum; [2]): 0%; inhibition at 50 µM (Fusarium graminearum; [3]): 96% |
| CC(c1ccccc1F)n1cc(-c2ccnc(NC(=O)C3CC3)c2)c(-c2ccc(F)cc2)n1 (stereo not drawn) [Compound 259] | 90% | 3.13 | – | – |
| CC(C)Cn1cc(-c2ccnc(NC(=O)C3CC3)c2)c(-c2ccc(F)c(C#N)c2)n1 [Compound 261] | – | 2.77 | – | inhibition at 50 µM (Fusarium graminearum; [2]): 39%; inhibition at 50 µM (Fusarium graminearum; [3]): 99% |
| O=C(Nc1cc(-c2cn(OC3CCCC3)nc2-c2ccc(F)cc2)ccn1)C1CC1 [Compound 269] | 89% | 3.35 | – | – |
| CC(C)Cn1cc(-c2ccnc(NCC3CC3)n2)c(-c2ccc(F)cc2)n1 [Compound 273] | 90% | 2.55 | – | – |
| Fc1ccc(-c2nn(CC3OCCO3)cc2-c2ccncc2)cc1 [Compound 275] | 90% | 1.02 | – | – |
| CC(C)n1cc(-c2ncnc3[nH]cnc23)c(-c2ccc(F)cc2)n1 [Compound 282] | 70% | 1.79 | – | – |
| CCC(=O)Nc1cc(-c2cn(Cc3cccc(C#N)c3)nc2-c2ccc(F)cc2)ccn1 [Compound 302] | 95% | 2.38 | – | – |
| CC(C1CC1)n1cc(-c2ccncc2)c(-c2ccc(F)cc2)n1 (stereo not drawn) [Compound 305] | 100% | 1.59 | – | – |
| CC(C)n1cc(-c2ncnc3[nH]ccc23)c(-c2ccc(F)cc2)n1 [Compound 310] | 95% | 1.61 | – | – |
| CC(Nc1cc(-c2cn(CC3CC3)nc2-c2ccc(F)cc2)ccn1)C(F)(F)F (stereo not drawn) [Compound 317] | 70% | 2.33 | – | – |
| CC(C)n1cc(-c2ccnc(NC(C)C(F)(F)F)c2)c(-c2ccc(F)cc2)n1 (stereo not drawn) [Compound 318] | 80% | 2.26 | – | – |
| CC(Nc1cc(-c2cn(C)nc2-c2ccc(F)cc2)ccn1)C(F)(F)F (stereo not drawn) [Compound 319] | 90% | 1.73 | – | – |

| SMILES | pest or weed control at 500 ppm (Alternaria solani) | chromatographic logP (physchem; LogPA) | chromatographic logP (physchem; pH 2.7, logP (pH 2.7)) | other results |
| --- | --- | --- | --- | --- |
| COCC(=O)Nc1cc(-c2cn(C3CC3)nc2-c2ccc(F)cc2)ccn1 [Compound 321] | 70% | 2.37 | – | – |
| CCOC(=O)CC(CC)CC(=O)Nc1cc(-c2cn(CC)nc2-c2ccc(F)cc2)ccn1 (stereo not drawn) [Compound 332] | 90% | 2.9 | – | – |
| C[C@H](O)C(=O)Nc1cc(-c2cn(C)nc2-c2ccc(F)cc2)ccn1 [Compound 353] | 80% | 1.57 | – | – |
| CC(C)Nc1nccc(-c2cn(C)nc2-c2ccc(F)cc2)n1 [Compound 361] | 70% | 1.65 | – | – |
| CC(C)Nc1nccc(-c2cn(CCC#N)nc2-c2ccc(F)cc2)n1 [Compound 362] | 80% | 1.74 | – | – |
| C#CCn1cc(-c2ccnc(NC(C)C)n2)c(-c2ccc(F)cc2)n1 [Compound 363] | 90% | 1.99 | – | – |
| CC(C)Nc1nccc(-c2cn(CC(F)F)nc2-c2ccc(F)cc2)n1 [Compound 364] | 95% | 2.05 | – | – |
| CCC(=O)Nc1nccc(-c2cn(CC(C)C)nc2-c2ccc(F)cc2)n1 [Compound 365] | 80% | 2.7 | – | – |
| CCn1cc(-c2ccnc(NC(C)C)n2)c(-c2ccc(F)cc2)n1 [Compound 370] | 95% | 1.91 | – | – |
| c1cnc2c(-c3c(-c4ccncc4)cnn3C3CCCCO3)cccc2c1 (stereo not drawn) [[X-24], 8-[4-(pyridin-4-yl)-1-(tetrahydro-2H-pyran-2-yl)-1H-pyrazol-5-yl]quinoline] | – | – | – | chromatographic logP (physchem; pH 2.3, LogP (pH 2.3)): 1.09 |
| CSc1nccc(-c2cn(C(C)C)nc2-c2ccc(F)cc2)n1 [[XL-1], 4-[3-(4-Fluorophenyl)-1-isopropyl-1H-pyrazol-4-yl]-2-(methylsulphanyl)pyrimidine] | – | – | 3.62 | – |
| CC(C)n1cc(-c2ccnc(S(C)(=O)=O)n2)c(-c2ccc(F)cc2)n1 [[XLI-1], 4-[3-(4-Fluorophenyl)-1-isopropyl-1H-pyrazol-4-yl]-2-(methylsulphonyl)pyrimidine] | – | – | 2.9 | – |
| O=C(Cc1ccnc(Cl)n1)c1ccc(F)cc1 [[XLIII-1], 2-(2-Chloropyrimidin-4-yl)-1-(4-fluorophenyl)ethanone] | – | – | 2.27 | – |
| CC(C)Nc1nccc(CC(=O)c2ccc(F)cc2)n1 [[XLIV-1], 1-(4-fluorophenyl)-2-[2-(isopropylamino)pyrimidin-4-yl]ethanone] | – | – | 2.05 | – |
| CC(C)Nc1nccc(C(=CN(C)C)C(=O)c2ccc(F)cc2)n1 [[XLV-1], 3-(Dimethylamino)-1-(4-fluorophenyl)-2-[2-(isopropylamino)pyrimidin-4-yl]prop-2-en-1-one] | – | – | 1.45 | – |
| CC(C)Nc1nccc(-c2c[nH]nc2-c2ccc(F)cc2)n1 [[XLVI-1], 4-[3-(4-fluorophenyl)-1H-pyrazol-4-yl]-N-isopropylpyrimidin-2-amine] | – | – | 1.37 | – |
| COCC(=O)Nc1cc(B2OC(C)(C)C(C)(C)O2)ccn1 [[XV-a-1], 2-Methoxy-N-[4-(4,4,5,5-tetramethyl-1,3,2-dioxaborolan-2-yl)pyridin-2-yl]acetamide] | – | – | -0.18 | – |
| CC(C)C(=O)Nc1cc(B2OC(C)(C)C(C)(C)O2)ccn1 [[XV-a-4], 2-Methyl-N-[4-(4,4,5,5-tetramethyl-1,3,2-dioxaborolan-2-yl)pyridin-2-yl]propanamide] | – | – | 0.04 | – |
| CC1(C)OB(c2ccnc(NC(=O)CC3CC3)c2)OC1(C)C [[XV-a-5], 2-Cyclopropyl-N-[4-(4,4,5,5-tetramethyl-1,3,2-dioxaborolan-2-yl)pyridin-2-yl]acetamide] | – | – | 0.27 | – |
| CCOC(=O)Nc1cc(B2OC(C)(C)C(C)(C)O2)ccn1 [[XV-a-6], Ethyl [4-(4,4,5,5-tetramethyl-1,3,2-dioxaborolan-2-yl)pyridin-2-yl]carbamate] | – | – | 0 | – |
| CC1(C)OB(c2ccnc(NC(=O)C3CC3)c2)OC1(C)C [[XV-a-7], N-[4-(4,4,5,5-Tetramethyl-1,3,2-dioxaborolan-2-yl)pyridin-2-yl]cyclopropanecarboxamide] | – | – | 0 | – |
| O=C(Cc1ccncc1)c1c(F)cccc1F [[XXV-1], 1-(2,6-Difluorophenyl)-2-(pyridin-4-yl)ethanone] | – | – | 0.62 | – |
| CN(C)C=C(C(=O)c1c(F)cccc1F)c1ccncc1 [[XXVI-1], 1-(2,6-Difluorophenyl)-3-(dimethylamino)-2-(pyridin-4-yl)prop-2-en-1-one] | – | – | 0.6 | – |
| Fc1cccc(F)c1-c1n[nH]cc1-c1ccncc1 [[XXVII-1], 4-[3-(2,6-Difluorophenyl)-1H-pyrazol-4-yl]pyridine] | – | – | 1.54 | – |
| Fc1ccc(-c2n[nH]c(Br)c2-c2ccncc2)cc1 [[XXVIII-1], 4-[5-Bromo-3-(4-fluorophenyl)-1H-pyrazol-4-yl]pyridine] | – | – | 0.92 | – |
| CSc1nccc(-c2c[nH]nc2-c2ccc(F)cc2)n1 [[XXXIX-1], 4-[3-(4-Fluorophenyl)-1H-pyrazol-4-yl]-2-(methylsulphanyl)pyrimidine] | – | – | 2.28 | – |

Source: patent US20110183978A1, “Phenylpyri(mi)dinylazoles” (Bayer CropScience AG, priority 2009, published 2011)
